Laboratory results from ChEMBL document CHEMBL3885861, “Open TG-GATES”.

Organism: Rattus norvegicus
Experiment: Open TG-GATES - Regimen: Daily Repeat
Format: toxicity, organism-based, Sprague-Dawley
Set-up: regimen Daily Repeat, gender Male, age 6 weeks
Conditions: in vivo, po, route gavage; for gamma-GTP / ALP / ALT / AST / BUN / CRE / Ca / DBIL / GLC / IP / K / LDH / Na / PL / RALB / TBIL / TC / TG / TP: tissue Plasma; for APTT / Bas / Eos / Fbg / Hb / Ht / Lym / MCH / MCHC / MCV / Mono / Neu / PT / Plat / RBC / Ret / WBC: tissue Blood; for KIDNEY_L / KIDNEY_R / KIDNEY_TOTAL: tissue Kidney; for LIVER: tissue Liver
[1] = 150 mg/kg, 72 h, dose level High, time 3 day
[2] = 150 mg/kg, […], dose level High, time 7 day
[3] = 150 mg/kg, […], dose level High, time 14 day
[4] = 150 mg/kg, […], dose level High, time 28 day

Structure (SMILES): Oc1ncnc2[nH]ncc12 [ALLOPURINOL]
- gamma-GTP (50 mg/kg, […], dose level Middle, time 28 day): 1.6 IU/L
- TERMINAL_BW [1]: 225 g
- APTT [1]: 15.8 s
- Bas [1]: 0%
- Eos [1]: 0.8%
- Fbg [1]: 368.2 mg/dL
- Hb [1]: 14 g/dL
- Ht [1]: 41.8%
- Lym [1]: 70.2%
- MCH [1]: 21.7 pg
- MCHC [1]: 33.4%
- MCV [1]: 65.1 fL
- Mono [1]: 13%
- Neu [1]: 16%
- PT [1]: 12.5 s
- Plat [1]: 115.9 x10_4/uL
- RBC [1]: 642.4 x10_4/ul
- Ret [1]: 5.2%
- WBC [1]: 122.6 x10_2/uL
- KIDNEY_L [1]: 1.6 g
- KIDNEY_R [1]: 1.7 g
- KIDNEY_TOTAL [1]: 3.2 g
- LIVER [1]: 9.7 g
- ALP [1]: 838.2 IU/L
- ALT [1]: 27.6 IU/L
- AST [1]: 61.2 IU/L
- BUN [1]: 35.2 mg/dL
- CRE [1]: 0.8 mg/dL
- Ca [1]: 11.5 mg/dL
- DBIL [1]: 0 mg/dL
- GLC [1]: 192 mg/dL
- IP [1]: 8 mg/dL
- K [1]: 4.8 meq/L
- LDH [1]: 165.4 IU/L
- Na [1]: 139 meq/L
- PL [1]: 142 mg/dL
- RALB [1]: 3.8 g/dL
- TBIL [1]: 0.3 mg/dL
- TC [1]: 87 mg/dL
- TG [1]: 47.8 mg/dL
- TP [1]: 6.3 g/dL
- gamma-GTP [1]: 4.2 IU/L
- TERMINAL_BW [2]: 245.1 g
- TERMINAL_BW [3]: 248.1 g
- TERMINAL_BW [4]: 319.9 g
- APTT [2]: 16.2 s
- Bas [2]: 0%
- Eos [2]: 1%
- Fbg [2]: 300.7 mg/dL
- Hb [2]: 14.2 g/dL
- Ht [2]: 42.6%
- Lym [2]: 77.7%
- MCH [2]: 21 pg
- MCHC [2]: 33.2%
- MCV [2]: 63.2 fL
- Mono [2]: 6.7%
- Neu [2]: 15.3%
- PT [2]: 12.9 s
- Plat [2]: 122.5 x10_4/uL
- RBC [2]: 676.7 x10_4/ul
- Ret [2]: 2.8%
- WBC [2]: 161 x10_2/uL
- APTT [3]: 16.1 s
- Bas [3]: 0%
- Eos [3]: 1%
- Fbg [3]: 414 mg/dL
- Hb [3]: 14.4 g/dL
- Ht [3]: 42.8%
- Lym [3]: 52%
- MCH [3]: 19.8 pg
- MCHC [3]: 33.5%
- MCV [3]: 59 fL
- Mono [3]: 7%
- Neu [3]: 40.4%
- PT [3]: 13.3 s
- RBC [3]: 725 x10_4/ul
- Ret [3]: 2.1%
- WBC [3]: 209.4 x10_2/uL
- APTT [4]: 15.3 s
- Bas [4]: 0%
- Eos [4]: 0.5%
- Fbg [4]: 319.5 mg/dL
- Hb [4]: 13.7 g/dL
- Ht [4]: 40.8%
- Lym [4]: 74.8%
- MCH [4]: 19.2 pg
- MCHC [4]: 33.6%
- MCV [4]: 57.1 fL
- Mono [4]: 3.2%
- Neu [4]: 21%
- PT [4]: 13 s
- Plat [4]: 117.9 x10_4/uL
- RBC [4]: 713.5 x10_4/ul
- Ret [4]: 3.9%
- WBC [4]: 344.2 x10_2/uL
- KIDNEY_L [2]: 1.8 g
- KIDNEY_R [2]: 1.9 g
- KIDNEY_TOTAL [2]: 3.7 g
- KIDNEY_L [3]: 2.8 g
- KIDNEY_R [3]: 2.9 g
- KIDNEY_TOTAL [3]: 5.7 g
- KIDNEY_L [4]: 3 g
- KIDNEY_R [4]: 2.7 g
- KIDNEY_TOTAL [4]: 5.6 g
- LIVER [4]: 12.1 g
- ALP [2]: 697 IU/L
- ALT [2]: 24.7 IU/L
- AST [2]: 60.7 IU/L
- BUN [2]: 38.7 mg/dL
- CRE [2]: 0.8 mg/dL
- Ca [2]: 11 mg/dL
- DBIL [2]: 0.0367 mg/dL
- GLC [2]: 190 mg/dL
- IP [2]: 5.6 mg/dL
- K [2]: 4.6 meq/L
- LDH [2]: 96.3 IU/L
- Na [2]: 141.3 meq/L
- PL [2]: 139.7 mg/dL
- RALB [2]: 3.8 g/dL
- TBIL [2]: 0.2 mg/dL
- TC [2]: 80.7 mg/dL
- TG [2]: 64.3 mg/dL
- TP [2]: 6.2 g/dL
- gamma-GTP [2]: 3 IU/L
- ALP [3]: 608.6 IU/L
- ALT [3]: 23.4 IU/L
- AST [3]: 62.8 IU/L
- BUN [3]: 66.2 mg/dL
- CRE [3]: 1 mg/dL
- DBIL [3]: 0 mg/dL
- GLC [3]: 177 mg/dL
- IP [3]: 5.1 mg/dL
- K [3]: 4.5 meq/L
- LDH [3]: 150.8 IU/L
- Na [3]: 140.2 meq/L
- PL [3]: 154.8 mg/dL
- RALB [3]: 3.3 g/dL
- TBIL [3]: 0.3 mg/dL
- TC [3]: 91.2 mg/dL
- TP [3]: 6.1 g/dL
- gamma-GTP [3]: 6 IU/L
- ALP [4]: 482 IU/L
- ALT [4]: 29.8 IU/L
- AST [4]: 68.8 IU/L
- BUN [4]: 61.2 mg/dL
- CRE [4]: 1.1 mg/dL
- Ca [4]: 11.3 mg/dL
- DBIL [4]: 0.015 mg/dL
- GLC [4]: 163.5 mg/dL
- IP [4]: 5.2 mg/dL
- K [4]: 4.8 meq/L
- LDH [4]: 150.8 IU/L
- Na [4]: 141.5 meq/L
- PL [4]: 162.5 mg/dL
- RALB [4]: 3.7 g/dL
- TBIL [4]: 0.2 mg/dL
- TC [4]: 98.2 mg/dL
- TG [4]: 79 mg/dL
- TP [4]: 6.3 g/dL
- gamma-GTP [4]: 3.8 IU/L
